# Results: ChEMBL document CHEMBL1134074, “Identification of novel potent hydroxamic acid inhibitors of peptidyl deformylase and the importance of the hydroxamic acid functionality on inhibition” (Bioorg Med Chem Lett, 2001)
# Columns and labels:
# Escherichia coli = assay: Antibacterial activity against Escherichia coli (ECOL) 6674; type: functional
# Peptide deformylase = molecular target: T1, Peptide deformylase (Staphylococcus aureus subsp. aureus Mu50, UniProt P68825); assay: Inhibition of Peptidyl deformylase (PDF)
# T1 sequence (P68825 whole entry): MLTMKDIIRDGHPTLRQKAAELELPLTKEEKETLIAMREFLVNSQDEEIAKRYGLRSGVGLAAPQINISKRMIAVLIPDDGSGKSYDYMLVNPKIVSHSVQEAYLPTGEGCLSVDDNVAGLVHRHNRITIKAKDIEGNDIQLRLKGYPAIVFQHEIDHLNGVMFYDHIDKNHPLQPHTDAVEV
# Staphylococcus aureus = assay: Antibacterial activity against Staphylococcus aureus (SAUR) 9218; type: functional
# [1] = tested on: Staphylococcus epidermidis; assay: Antibacterial activity against Staphylococcus epidermidis (SEPI) 12084; type: functional
# Streptococcus pneumoniae = assay: Antibacterial activity against Streptococcus pneumoniae (SPNE) 9912; type: functional
MIC (Escherichia coli) [µg/mL],IC50 (Peptide deformylase) [µM],MIC (Staphylococcus aureus) [µg/mL],MIC [1] [µg/mL],MIC (Streptococcus pneumoniae) [µg/mL],SMILES
> 64,,> 64,> 64,> 64,O=C(NO)C(NCc1cccc(C(F)(F)F)c1)c1cccc2ccccc12 (stereo unspecified)
> 128,4.1,64,128,32,NNC(=O)C(NCc1cccc(C(F)(F)F)c1)c1cccc2ccccc12 (stereo unspecified)
> 128,,> 128,> 128,> 128,COc1cccc(C(NCc2cccc(C(F)(F)F)c2)C(=O)NO)c1 (stereo unspecified)
> 128,0.69,> 128,> 128,> 128,O=C(NO)C(NCc1cccc(C(F)(F)F)c1)c1ccc(F)c(F)c1 (stereo unspecified)
> 128,> 100,64,64,16,NC(=O)C(NCc1cccc(C(F)(F)F)c1)c1cccc2ccccc12 (stereo unspecified)
> 128,0.46,> 128,> 128,> 128,O=C(NO)C(NCc1cccc(C(F)(F)F)c1)c1ccccc1F (stereo unspecified)
> 128,,32,32,32,O=C(NO)N(CCc1cccc(C(F)(F)F)c1)c1cccc2ccccc12
> 128,> 100,> 128,> 128,128,O=C(O)C(NCc1cccc(C(F)(F)F)c1)c1cccc2ccccc12 (stereo unspecified)

# More lines, now with the values behind:
SMILES,MIC (Escherichia coli) [µg/mL],IC50 (Peptide deformylase) [µM],MIC (Staphylococcus aureus) [µg/mL],MIC [1] [µg/mL],MIC (Streptococcus pneumoniae) [µg/mL]
O=C(CS)N(CCc1cccc(C(F)(F)F)c1)c1cccc2ccccc12,> 128,> 100,> 128,> 128,> 128
NNC(=O)N(CCc1cccc(C(F)(F)F)c1)c1cccc2ccccc12,> 128,> 100,> 128,> 128,> 128
O=C(Cc1ccc(-c2ccccc2)cc1)NO,> 128,> 50,> 128,> 128,> 128
O=C(CO)N(CCc1cccc(C(F)(F)F)c1)c1cccc2ccccc12,> 128,> 100,32,> 128,32
CC(=O)NO [ACETOHYDROXAMIC ACID],> 128,> 100,> 128,> 128,> 128
COc1cc(Cl)c(CC(=O)NO)cc1OC,> 32,,> 32,> 32,> 32
